According to patent US20130065931A1, “METHODS FOR REDUCING WIREWORM DAMAGE TO CROPS” (priority 2011, published 2013):

Test system: wireworm
Test: Efficacy of chemical treatments on wireworm in potatoes grown in Washington State
Format: in vivo
Conditions: result in words; values only in the figure
Excerpt: Experimental procedure for determining the efficacy of various chemical treatments on wire-worm in potatoes grown in Washington State, United States. Potato seed Solarium tuberosum L., ‘Russet Burbank’ was used in this experiment. Seeds were planted at a depth of 8 inches with spacing within the row at 10 inches and between rows at 34 inches. The experimental site was a 12 ft. by 20 ft. plot containing four experimental replications. [table] [table] [table]

In the case of `CCOC(=O)OC1=C(c2cc(C)ccc2C)C(=O)N[C@]12CC[C@@H](OC)CC2` [spirotetramat], the “percent reduction in wireworm infestation of potatoes (FIG. 3)” value is reported as “confirm the efficacy”.
